Active and inactive are the calls of the source. The calls are words filed in the database; no cut-off is given here.
Legend:
PNT2 = test: Cytotoxicity against human PNT2 cells assessed as inhibition of cell growth measured upto 15 uM incubated for 5 days by WST-8 assay; assay type: toxicity, cell-based; conditions: pnt2, 120 h, time 5 day
K562 [1] = test: Antiproliferative activity against human K562 cells assessed as fold increase in HoxD mRNA expression at 10 uM incubated for 24 hrs by RT-qPCR analysis; assay type: functional
[2] = target: T1, Protein cereblon/Polycomb complex protein BMI-1 (Homo sapiens, UniProt Q96SW2+P35226); test: PROTAC activity at […] in human K562 cells assessed as degradation of BMI1 protein expression at 10 uM incubated for 20 hrs in presence of pomalidomide by Western blotting analysis; assay type: cell-based
[3] = target: Protein cereblon/Histone-lysine N-methyltransferase EZH2 (Homo sapiens) (UniProt Q15910+Q96SW2); test: PROTAC activity at CRBN/EZH2 in human K562 cells assessed as degradation of EZH2 protein expression at 0.1 to 10 uM incubated for 24 hrs by Western blotting analysis; assay type: cell-based; conditions: dose 0.1-10 µM
786-0 [4] = test: Antiproliferative activity against human 786-0 cells assessed as inhibition of cell growth at 15 uM incubated for 7 days by WST-8 assay; assay type: functional, cell-based; conditions: time 7.0 day
[5] = target: T2, Protein cereblon/Polycomb protein EED (Homo sapiens, UniProt O75530+Q96SW2); test: PROTAC activity at CRBN/EED in human K562 cells assessed as degradation of EED protein expression at 10 uM measured after 12 hrs by Western blotting analysis relative to control; assay type: cell-based
[6] = target: T1, Protein cereblon/Polycomb complex protein BMI-1; test: PROTAC activity at CRBN/BIM1 in human MDA-MB-468 cells assessed as degradation of BMI1 protein expression at 5 uM incubated for 24 hrs by Western blotting analysis; assay type: cell-based
[7] = target: Protein cereblon/RING1 and YY1-binding protein (Homo sapiens) (UniProt Q96SW2+Q8N488); test: PROTAC activity at CRBN/RYBP in human K562 cells assessed as degradation of RYBP protein expression at 1 to 10 uM incubated for 24 hrs by Western blotting analysis; assay type: cell-based; conditions: dose 1-10 µM
PC-3M [8] = test: Inhibition of colony formation in human PC-3M cells at 1 to 10 uM incubated for 14 days by crystal violet staining based assay; assay type: functional, cell-based; conditions: dose 1-10 µM, time 14.0 day
[9] = target: von Hippel-Lindau disease tumor suppressor/Polycomb complex protein BMI-1 (Homo sapiens) (UniProt P40337+P35226); test: PROTAC activity at […] in human 786-0 cells with defective VHL assessed as degradation of BMI1 protein expression at 10 uM incubated for 24 hrs by Western blotting analysis; assay type: cell-based
[10] = target: T3, Protein cereblon/E3 ubiquitin-protein ligase RING2 (Homo sapiens, UniProt Q96SW2+Q99496); test: PROTAC activity at CRBN/RING1B in human PC-3M cells assessed as degradation of RING1B protein expression at 1 uM incubated for 24 hrs by Western blotting analysis; assay type: cell-based
Target sequence in this assay (Q96SW2 whole entry): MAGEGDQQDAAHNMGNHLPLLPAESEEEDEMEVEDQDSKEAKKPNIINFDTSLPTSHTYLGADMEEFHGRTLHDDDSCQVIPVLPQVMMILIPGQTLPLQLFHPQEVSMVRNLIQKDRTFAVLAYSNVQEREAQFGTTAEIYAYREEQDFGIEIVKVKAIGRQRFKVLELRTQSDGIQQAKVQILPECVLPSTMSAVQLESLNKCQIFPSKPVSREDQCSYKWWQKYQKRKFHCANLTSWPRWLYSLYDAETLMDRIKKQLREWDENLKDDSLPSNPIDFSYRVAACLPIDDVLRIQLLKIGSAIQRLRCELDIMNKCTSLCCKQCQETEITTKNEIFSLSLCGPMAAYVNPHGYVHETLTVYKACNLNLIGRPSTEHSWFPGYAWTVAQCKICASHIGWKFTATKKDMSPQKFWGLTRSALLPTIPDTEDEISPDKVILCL
Target sequence in this assay (Q99496 2-336 partner limits assumed): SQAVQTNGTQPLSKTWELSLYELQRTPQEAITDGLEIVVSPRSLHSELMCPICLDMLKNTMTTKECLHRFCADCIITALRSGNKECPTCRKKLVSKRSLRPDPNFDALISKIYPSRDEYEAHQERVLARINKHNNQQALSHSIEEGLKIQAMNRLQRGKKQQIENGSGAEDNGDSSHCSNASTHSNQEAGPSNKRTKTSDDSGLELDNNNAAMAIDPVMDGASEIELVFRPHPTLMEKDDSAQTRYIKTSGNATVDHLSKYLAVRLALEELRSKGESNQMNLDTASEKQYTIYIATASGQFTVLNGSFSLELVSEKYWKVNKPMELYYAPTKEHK

[11] = target: T1, Protein cereblon/Polycomb complex protein BMI-1; test: PROTAC activity at […] in human K562 cells assessed as degradation of BMI1 protein expression at 10 uM incubated for 20 hrs in presence of EED226 by Western blotting analysis; assay type: cell-based
K562 [12] = test: Antiproliferative activity against human K562 cells assessed as fold increase in HoxA mRNA expression at 10 uM incubated for 24 hrs by RT-qPCR analysis; assay type: functional
K562 [13] = test: Induction of PRC2 degradation in human K562 cells assessed as reduction of H3K27me3 chromatin mark at 0.1 to 10 uM incubated for 24 hrs by Western blotting analysis; assay type: cell-based; conditions: dose 0.1-10 µM
[14] = target: Protein cereblon/YY1-associated factor 2 (Homo sapiens) (UniProt Q96SW2+Q8IY57); test: PROTAC activity at CRBN/YAF in human K562 cells assessed as degradation of YAF protein expression at 1 to 10 uM incubated for 24 hrs by Western blotting analysis; assay type: cell-based; conditions: dose 1-10 µM
[15] = target: T1, Protein cereblon/Polycomb complex protein BMI-1; test: PROTAC activity at CRBN/BIM1 in human PC-3M cells assessed as degradation of BMI1 protein expression at 5 uM incubated for 24 hrs by Western blotting analysis; assay type: cell-based
[16] = target: T2, Protein cereblon/Polycomb protein EED; test: PROTAC activity at CRBN/EED in human K562 cells assessed as degradation of EED mRNA expression at 10 uM incubated for 20 hrs by RT-qPCR analysis; assay type: cell-based
[17] = target: T3, Protein cereblon/E3 ubiquitin-protein ligase RING2; test: PROTAC activity at CRBN/RING1B in human K562 cells assessed as degradation of RING1B mRNA expression at 10 uM incubated for 20 hrs by RT-qPCR analysis; assay type: cell-based
Target sequence in this assay (Q96SW2 whole entry): as the sequence (Q96SW2 whole entry) above
Target sequence in this assay (Q99496 2-336 partner limits assumed): as the sequence (Q99496 2-336 partner limits assumed) above

[18] = target: Protein cereblon/Chromobox protein homolog 8 (Homo sapiens) (UniProt Q9HC52+Q96SW2); test: PROTAC activity at CRBN/CBX8 in human K562 cells assessed as degradation of CBX8 protein expression at 1 to 10 uM incubated for 24 hrs by Western blotting analysis; assay type: cell-based; conditions: dose 1-10 µM
786-0 [19] = test: Induction of PRC2 degradation in human 786-0 cells with defective VHL assessed as reduction of H3K27me3 chromatin mark at 10 uM incubated for 24 hrs by Western blotting analysis; assay type: cell-based
[20] = target: T1, Protein cereblon/Polycomb complex protein BMI-1; test: PROTAC activity at […] in human K562 cells assessed as degradation of BMI1 protein expression at 10 uM measured after 4 hrs by Western blotting analysis; assay type: cell-based
[21] = Drug concentration in Swiss albino mouse plasma at 50 mg/kg,ip administration measured after 8 hrs by LC-MS/MS analysis; assay type: ADME, organism-based
PC-3M [22] = test: Induction of PRC2 degradation in human PC-3M cells assessed as reduction of H3K27me3 chromatin mark at 1 uM incubated for 24 hrs by Western blotting analysis; assay type: cell-based
[23] = target: T1, Protein cereblon/Polycomb complex protein BMI-1; test: PROTAC activity at CRBN/BIM1 in human PC-3M cells assessed as degradation of BMI1 protein expression at 1 uM incubated for 24 hrs by Western blotting analysis; assay type: cell-based
K562 [24] = test: Induction of PRC1 degradation in human K562 cells assessed as reduction of H2AK119ub chromatin mark at 0.1 to 10 uM incubated for 24 hrs by Western blotting analysis; assay type: cell-based; conditions: dose 0.1-10 µM
MDA-MB-468 [25] = test: Induction of PRC1 degradation in human MDA-MB-468 cells assessed as reduction of H2AK119ub chromatin mark at 5 uM incubated for 24 hrs by Western blotting analysis; assay type: cell-based
[26] = target: T1, Protein cereblon/Polycomb complex protein BMI-1; test: PROTAC activity at […] in human K562 cells assessed as degradation of BMI1 mRNA expression at 10 uM incubated for 20 hrs by RT-qPCR analysis; assay type: cell-based
[27] = target: T3, Protein cereblon/E3 ubiquitin-protein ligase RING2; test: PROTAC activity at CRBN/RING1B in human 786-0 cells with defective VHL assessed as degradation of RING1B protein expression at 10 uM incubated for 24 hrs by Western blotting analysis; assay type: cell-based
Target sequence in this assay (Q96SW2 whole entry): as the sequence (Q96SW2 whole entry) above
Target sequence in this assay (Q99496 2-336 partner limits assumed): as the sequence (Q99496 2-336 partner limits assumed) above

[28] = target: T3, Protein cereblon/E3 ubiquitin-protein ligase RING2; test: PROTAC activity at CRBN/RING1B in human K562 cells assessed as degradation of RING1B protein expression incubated for 24 hrs by Western blotting analysis; assay type: cell-based
MDA-MB-468 [29] = test: Antiproliferative activity against human MDA-MB-468 cells assessed as inhibition of cell growth at 1 to 10 uM incubated for 5 days by WST-8 assay; assay type: functional, cell-based; conditions: dose 1-10 µM, time 5.0 day

T1 sequence (P35226 whole entry, looked up): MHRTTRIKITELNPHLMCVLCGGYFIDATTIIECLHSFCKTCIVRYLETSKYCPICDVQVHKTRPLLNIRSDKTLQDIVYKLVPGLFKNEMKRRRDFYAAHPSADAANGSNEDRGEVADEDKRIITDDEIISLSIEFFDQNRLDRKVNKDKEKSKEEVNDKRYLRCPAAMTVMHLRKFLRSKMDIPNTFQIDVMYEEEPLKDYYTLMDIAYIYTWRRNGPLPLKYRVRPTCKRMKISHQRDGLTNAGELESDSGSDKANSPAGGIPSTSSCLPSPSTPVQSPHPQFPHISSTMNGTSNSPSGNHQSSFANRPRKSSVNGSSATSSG
T1 sequence (Q96SW2 whole entry, looked up): as the sequence (Q96SW2 whole entry) above
T2 sequence (O75530 2-441 limits assumed): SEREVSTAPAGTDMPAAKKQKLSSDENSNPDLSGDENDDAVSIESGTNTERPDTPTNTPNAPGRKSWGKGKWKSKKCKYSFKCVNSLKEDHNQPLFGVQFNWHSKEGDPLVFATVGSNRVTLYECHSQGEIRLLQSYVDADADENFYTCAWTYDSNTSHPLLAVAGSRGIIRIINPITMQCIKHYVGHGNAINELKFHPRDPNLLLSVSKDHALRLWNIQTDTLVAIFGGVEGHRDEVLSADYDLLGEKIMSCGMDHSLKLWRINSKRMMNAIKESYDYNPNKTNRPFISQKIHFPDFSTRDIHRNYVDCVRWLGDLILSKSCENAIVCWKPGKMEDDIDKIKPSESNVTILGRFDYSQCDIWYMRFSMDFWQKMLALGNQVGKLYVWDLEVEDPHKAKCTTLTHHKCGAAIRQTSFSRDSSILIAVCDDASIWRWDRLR
T2 sequence (Q96SW2 whole entry partner): as the sequence (Q96SW2 whole entry) above
Protein cereblon/RING1 and YY1-binding protein (Homo sapiens), sequence (Q8N488 whole entry, looked up): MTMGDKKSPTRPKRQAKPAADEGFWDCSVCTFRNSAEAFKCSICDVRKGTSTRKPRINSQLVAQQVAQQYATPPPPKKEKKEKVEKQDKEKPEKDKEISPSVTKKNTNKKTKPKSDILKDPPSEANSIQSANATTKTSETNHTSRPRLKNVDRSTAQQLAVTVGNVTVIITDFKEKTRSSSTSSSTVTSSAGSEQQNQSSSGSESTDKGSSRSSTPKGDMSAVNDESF
Protein cereblon/RING1 and YY1-binding protein (Homo sapiens), sequence (Q96SW2 whole entry, looked up): as the sequence (Q96SW2 whole entry) above
Protein cereblon/Histone-lysine N-methyltransferase EZH2 (Homo sapiens), sequence (Q15910 whole entry, looked up): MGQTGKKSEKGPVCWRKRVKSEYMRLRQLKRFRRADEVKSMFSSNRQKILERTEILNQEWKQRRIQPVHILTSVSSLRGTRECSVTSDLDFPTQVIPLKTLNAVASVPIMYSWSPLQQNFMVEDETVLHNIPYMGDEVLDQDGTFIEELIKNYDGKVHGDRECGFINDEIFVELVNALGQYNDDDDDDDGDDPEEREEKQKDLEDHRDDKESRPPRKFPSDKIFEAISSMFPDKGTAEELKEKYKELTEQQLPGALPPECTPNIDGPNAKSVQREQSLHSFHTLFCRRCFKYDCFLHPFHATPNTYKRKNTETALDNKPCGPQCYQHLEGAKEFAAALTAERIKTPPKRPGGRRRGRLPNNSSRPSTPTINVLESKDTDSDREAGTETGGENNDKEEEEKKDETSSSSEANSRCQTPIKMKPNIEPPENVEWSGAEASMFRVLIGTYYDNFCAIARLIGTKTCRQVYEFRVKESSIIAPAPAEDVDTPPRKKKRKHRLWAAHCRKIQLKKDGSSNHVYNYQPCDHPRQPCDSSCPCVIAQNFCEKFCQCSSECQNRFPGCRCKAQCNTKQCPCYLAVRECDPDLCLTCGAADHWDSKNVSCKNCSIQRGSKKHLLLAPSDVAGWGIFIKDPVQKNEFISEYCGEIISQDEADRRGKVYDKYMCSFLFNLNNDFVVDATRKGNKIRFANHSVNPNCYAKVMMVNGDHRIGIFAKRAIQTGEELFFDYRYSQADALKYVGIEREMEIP
Protein cereblon/Histone-lysine N-methyltransferase EZH2 (Homo sapiens), sequence (Q96SW2 whole entry, looked up): as the sequence (Q96SW2 whole entry) above

O=C(CNc1cccc2c1C(=O)N(C1CCC(=O)NC1=O)C2=O)NCCCCN1CCN(c2ccc(-c3cnc(NCc4ccco4)n4cnnc34)cc2)CC1 (stereo not given)
Activity (PNT2): Non-Toxic
fold change (FC) (K562 [1]): 2.3
Activity [2]: inactive
Activity [3]: Active
Activity (786-0 [4]): Active
Activity [5]: 50%
Activity [6]: Active
Activity [7]: inactive
inhibition (PC-3M [8]): Active
Activity [9]: Active
Activity [10]: Active
Activity [11]: inactive
fold change (FC) (K562 [12]): 3.1
Activity (K562 [13]): Active
Activity [14]: inactive
Activity [15]: Active
Activity [16]: inactive
Activity [17]: inactive
Activity [18]: inactive
Activity (786-0 [19]): inactive
Activity [20]: Active
concentration at 8 h [21]: > 500 nM
Activity (PC-3M [22]): inactive
Activity [23]: Active
Activity (K562 [24]): Active
Activity (MDA-MB-468 [25]): Active
Activity [26]: inactive
Activity [27]: Active
DC50 [28]: 1300 nM
Activity (MDA-MB-468 [29]): Active

— ChEMBL document CHEMBL5543147, “Discovery and Characterization of a Novel Cereblon-Recruiting PRC1 Bridged PROTAC Degrader” (J Med Chem, 2024)
